Experimental data reported in patent publication US8030341B2, “Dmt-derivative compounds and related compositions and methods of use” (priority 2005, dated 2011).
Counter-ions that a name gives are not always drawn. Like-named read-outs stand apart in the source and are kept apart here.

What was measured:
δ-opioid receptor [1] = target: T1, δ-opioid receptor (Rattus norvegicus, UniProt P33533); assay: opioid receptor binding competition assay, rat brain P2 synaptosomal membranes (δ); details: for Ki(μ)/Ki(δ): selectivity ratio
T1 construct: from tissue; host or cells: rat brain P2 synaptosomal membranes (Sprague-Dawley)
Method: (§1) Synaptosomes were preincubated to remove endogenous opioids, washed in excess ice-cold buffer containing protease inhibitor and stored in a glycerol-containing buffer with protease inhibitor at −80° C. as described in Lazarus et al., J. Med. Chem. 34:1350-55 (1991). […] After incubation, the radiolabeled membranes were rapidly filtered on Whatman GF/C glass fiber filters presoaked in 0.1% polyethylenimine in order to optimize the signal-to-noise ratio, washed with ice-cold BSA buffer, and dried at 75-80° C. Radioactivity was determined using EcoLume (ICN, Costa Mesa, Calif.). All compounds were analyzed in duplicate using 5-8 peptide dosages and several synaptosomal preparations in independent repetitions to ensure statistical significance. The affinity constants (Ki) were calculated according to Cheng and Prusoff (Cheng et al., Biochem. Pharmacol., 22: 3099-3108 ([…])).

μ-opioid receptor [2] = target: T2, μ-opioid receptor (Rattus norvegicus, UniProt P33535); assay: opioid receptor binding competition assay, rat brain P2 synaptosomal membranes (μ); details: for Ki(δ)/Ki(μ): selectivity ratio
T2 construct: from tissue; host or cells: rat brain P2 synaptosomal membranes (Sprague-Dawley)
Method: as §1

δ-opioid receptor [3] = target: T3, δ-opioid receptor (Mus musculus, UniProt P32300); assay: mouse vas deferens (MVD) bioassay; type: cell-based; details: for MVD Antagonist pA2 (nM), value in parentheses (Ke): versus deltorphin II, antilog of pA2; for MVD Antagonist pA2: versus deltorphin II as agonist
T3 construct: from tissue; host or cells: isolated mouse vas deferens
Source text: Bioorg. Med. Chem., 11: 675-678 (2003). The isolated tissues were suspended in organ baths containing balanced salt solutions in a physiological buffer, pH 7.5. […]

μ-opioid receptor [4] = target: μ-opioid receptor (Cavia porcellus, UniProt P97266); assay: guinea pig ileum (GPI) bioassay; type: cell-based; details: for GPI Antagonist pA2 (nM), value in parentheses (Ke): versus endomorphin-2, antilog of pA2
Method: The myenteric plexus longitudinal muscle preparations (2-3 cm segments) from the small intestine of male Hartley strain guinea pigs (GP1) measured μ-opioid receptor agonism and a single mouse vas deferens (MVD) was used to determine δ-opioid receptor agonism as described in Sasaki et al. Bioorg. […] The isolated tissues were suspended in organ baths containing balanced salt solutions in a physiological buffer, pH 7.5. Agonists were tested for the inhibition of electrically evoked contraction and expressed as IC50 (nM) obtained from the dose-response curves.

[5] = Table 1, rat brain synaptosomes, footnote a: versus [3H]DAMGO, read-out: Ki(δ)
[6] = Table 1, rat brain synaptosomes, footnote b: versus [3H]DPDPE, read-out: Ki(μ)
[7] = Table 2, inhibition of electrically evoked contraction, read-out: MVD agonist IC50
[8] = Table 2, inhibition of electrically evoked contraction, read-out: GPI agonist IC50

T2 sequence (P33535 whole entry): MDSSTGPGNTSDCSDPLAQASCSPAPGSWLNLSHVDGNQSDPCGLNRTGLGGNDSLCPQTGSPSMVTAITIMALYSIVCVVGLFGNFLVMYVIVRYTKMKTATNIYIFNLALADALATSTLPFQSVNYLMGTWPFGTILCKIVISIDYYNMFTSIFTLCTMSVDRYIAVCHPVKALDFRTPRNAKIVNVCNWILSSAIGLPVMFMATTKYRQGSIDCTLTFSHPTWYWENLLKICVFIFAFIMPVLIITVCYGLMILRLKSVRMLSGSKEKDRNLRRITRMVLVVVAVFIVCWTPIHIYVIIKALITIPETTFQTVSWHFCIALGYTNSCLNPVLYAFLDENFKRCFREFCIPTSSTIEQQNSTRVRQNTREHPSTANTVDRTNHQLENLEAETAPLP
Chain of μ-opioid receptor (Cavia porcellus, UniProt P97266) (P97266 whole entry, looked up): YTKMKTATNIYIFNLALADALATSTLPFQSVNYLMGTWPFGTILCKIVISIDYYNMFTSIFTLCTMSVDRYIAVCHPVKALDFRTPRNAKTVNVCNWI
T3 sequence (P32300 whole entry): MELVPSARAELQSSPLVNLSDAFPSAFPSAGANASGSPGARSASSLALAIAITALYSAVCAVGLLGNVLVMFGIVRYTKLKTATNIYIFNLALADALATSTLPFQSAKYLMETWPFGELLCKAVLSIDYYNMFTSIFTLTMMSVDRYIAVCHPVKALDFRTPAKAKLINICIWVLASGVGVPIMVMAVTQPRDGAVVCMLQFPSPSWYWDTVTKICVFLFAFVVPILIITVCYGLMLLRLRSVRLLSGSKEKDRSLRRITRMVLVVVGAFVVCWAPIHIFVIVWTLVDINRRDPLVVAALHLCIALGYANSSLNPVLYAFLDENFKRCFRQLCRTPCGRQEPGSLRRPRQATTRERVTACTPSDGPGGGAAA
T1 sequence (P33533 whole entry): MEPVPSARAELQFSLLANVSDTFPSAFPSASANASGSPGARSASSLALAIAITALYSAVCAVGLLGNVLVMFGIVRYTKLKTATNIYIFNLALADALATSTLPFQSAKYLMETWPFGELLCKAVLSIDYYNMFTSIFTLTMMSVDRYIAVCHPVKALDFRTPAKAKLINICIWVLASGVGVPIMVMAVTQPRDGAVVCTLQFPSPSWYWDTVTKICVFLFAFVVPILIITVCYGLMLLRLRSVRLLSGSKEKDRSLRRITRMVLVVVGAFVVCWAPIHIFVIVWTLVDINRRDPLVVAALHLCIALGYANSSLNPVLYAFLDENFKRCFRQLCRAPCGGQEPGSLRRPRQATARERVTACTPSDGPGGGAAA

Molecule | MVD Antagonist pA2 (nM), value in parentheses (Ke) (δ-opioid receptor [3]; Table 2) | Ki (δ-opioid receptor [1]; [5]) | Ki(μ)/Ki(δ) (δ-opioid receptor [1]; Table 1) | Ki (μ-opioid receptor [2]; [6]) | IC50 (δ-opioid receptor [3]; [7]) | MVD Antagonist pA2 (δ-opioid receptor [3]; Table 2) | IC50 (μ-opioid receptor [4]; [8]) | other results
Cc1cc(O)cc(C)c1CC(N)C(=O)N1Cc2ccccc2CC1C(=O)NCCCCCCCCCCNC(=O)C1Cc2ccccc2CN1C(=O)C(N)Cc1c(C)cc(O)cc1C (centres unmarked) (as salt: HCl) [Compound 20, 1,10-Bis(Drat-Tic-amino)decane] | – | – | – | – | – | – | – | melting point: 205 to 207 °C
Cc1cc(O)cc(C)c1CC(N)C(=O)N1Cc2ccccc2CC1C(=O)NCCCCCCNC(=O)C1Cc2ccccc2CN1C(=O)C(N)Cc1c(C)cc(O)cc1C (stereo not drawn) [Compound 19, 1,6-Bis(Dmt-Tic-amino)hexane] | 0.024 nM | – | – | – | – | – | – | Ki (δ-opioid receptor [1]): 0.129 ± 0.03 nM; Ki (μ-opioid receptor [2]): 1.79 ± 0.08 nM; IC50 (δ-opioid receptor [3]): > 10000 nM
C=CCN(CC=C)[C@@H](Cc1c(C)cc(O)cc1C)C(=O)N1CCC[C@H]1C(=O)N[C@@H](Cc1ccccc1)C(=O)N[C@@H](Cc1ccccc1)C(N)=O [Compound 30, [N,N-(allyl)2Dmt^1]EM-2] | – | – | – | – | – | – | – | Ki(δ)/Ki(μ) (μ-opioid receptor [2]; Table 3): 108; GPI pA2 (μ-opioid receptor [4]; Table 4, μ antagonism): None
3-(Dmt-Tic-NH-propyl)-6-(Dmt-Tic-NH-butyl)-2(1H)-pyrazinone [Compound 12] | 0.0251 nM | 0.16 ± 0.025 nM | 10 | 1.56 ± 0.11 nM | > 10000 nM | 10.60 | > 10000 nM | –
Cc1cc(O)cc(C)c1CC(N)C(=O)N1Cc2ccccc2CC1C(=O)NCCc1cnc(CCNC(=O)C2Cc3ccccc3CN2C(=O)C(N)Cc2c(C)cc(O)cc2C)c(=O)[nH]1 (stereo not drawn) [Compound 9, 3,6-Bis(Dmt-Tic-NH-ethyl)-2(1H)-pyrazinone] | 0.0186 nM | 0.095 ± 0.0004 nM | 30 | 2.83 ± 0.12 nM | > 10000 nM | 10.73 | > 10000 nM | GPI Antagonist pA2 (nM), value in parentheses (Ke) (μ-opioid receptor [4]; Table 2): 165 nM; GPI Antagonist pA2 (μ-opioid receptor [4]; Table 2, versus endomorphin-2 as agonist): 6.78
Cc1cc(O)cc(C)c1CC(N)C(=O)N1Cc2ccccc2CC1C(=O)NCCCCNC(=O)C1Cc2ccccc2CN1C(=O)C(N)Cc1c(C)cc(O)cc1C (stereo not drawn) [Compound 18, 1,4-Bis(Dmt-Tic-amino)butane] | 0.0309 nM | – | 46 | – | – | – | – | Ki (δ-opioid receptor [1]): 0.124 ± 0.016 nM; Ki (μ-opioid receptor [2]): 5.72 ± 0.22 nM; IC50 (δ-opioid receptor [3]): > 10000 nM; IC50 (μ-opioid receptor [4]): > 10000 nM; GPI Antagonist pA2 (nM), value in parentheses (Ke) (μ-opioid receptor [4]; Table 2): 102 nM
Cc1cc(O)cc(C)c1CC(N)C(=O)N1Cc2ccccc2CC1C(=O)NCCCCCCNC(=O)C1Cc2ccccc2CN1C(=O)C(N)Cc1c(C)cc(O)cc1C (stereo not drawn) (as salt: HCl) [Compound 19, 1,6-Bis(Dmt-Tic-amino)hexane] | – | – | – | – | – | – | – | melting point: 215 to 217 °C
3-(Dmt-Tic-NH-ethyl)-6-(Dmt-Tic-NH-butyl)-2(1H)-pyrazinone [Compound 14] | 0.0102 nM | 0.107 ± 0.007 nM | 13 | 1.37 ± 0.13 nM | > 10000 nM | 10.99 | > 10000 nM | –
C=CCN[C@@H](Cc1ccc(O)cc1)C(=O)N1CCC[C@H]1C(=O)N[C@@H](Cc1ccccc1)C(=O)N[C@@H](Cc1ccccc1)C(N)=O [Compound 29, [N-allyl]EM-2] | – | – | – | – | – | – | – | Ki (δ-opioid receptor [1]; Table 3, versus [3H]DPDPE, rat brain synaptosomes, read-out: Ki(δ)): 7360 ± 259 nM; Ki(δ)/Ki(μ) (μ-opioid receptor [2]; Table 3): 57; Ki (μ-opioid receptor [2]; Table 3, versus [3H]DAMGO, rat brain synaptosomes, read-out: Ki(μ)): 130 ± 9.27 nM
3,6-Bis(Dmt-Tic-NH-butyl)-2(1H)-pyrazinone [Compound 11] | 0.0871 nM | 0.323 ± 0.007 nM | 5 | 1.74 ± 0.14 nM | > 10000 nM | 11.06 | > 10000 nM | –
Cc1cc(O)cc(C)c1CC(N)C(=O)N1Cc2ccccc2CC1C(=O)NCCCCNC(=O)C1Cc2ccccc2CN1C(=O)C(N)Cc1c(C)cc(O)cc1C (stereo not drawn) (as salt: HCl) [Compound 18, 1,4-Bis(Dmt-Tic-amino)butane] | – | – | – | – | – | – | – | melting point: 215 to 217 °C
3,6-Bis(Dmt-Tic-NH-propyl)˜2(1H)-pyrazinone [Compound 10] | 0.0275 nM | 0.155 ± 0.016 nM | 20 | 3.08 ± 0.17 nM | > 10000 nM | 10.56 | 7020 ± 2470 nM | –
